Laboratory results from publication PMC10301922, “Anti-Oxidant, Anti-Mutagenic Activity and Safety Evaluation of Antrocin” (Toxics, 2023).
≈ marks a conversion by molar mass, not a printed value. Read-outs that look alike come from different tables or passages of the source.

Assays:
[1] = tested on: Sprague Dawley rats; assay: 28-day oral toxicity test: hematology
[2] = tested on: CHO-K1 cells
Experimental: A chromosomal aberration test was performed to evaluate the potential for antrocin to induce structural chromosomal abnormalities in Chinese hamster ovary cells (CHO-K1 cells). The test followed the protocol in Genetic Toxicology Testing: A Laboratory Manual. CHO-K1 cells were obtained from the Bioresource Collection and Research Center (BCRC), and were cultured in Ham F-12 medium with 10% fetal bovine serum and 0.1% Penicillin–Streptomycin at 5% CO2 in a 37 °C incubator. […] Three experimental conditions were conducted: 3 h with and without S9 (short term), and 19 h without S9 (long term). […] CHO-K1 cells were cultured in 25T flasks, incubated with samples for 3 or 19 h with and without S9, and harvested at the time of 1.5 cell cycle lengths (about 21 h). Two hours before harvesting, 100 μL colcemid (10 μg/mL) was added to disrupt cell mitosis. Collected cells were then treated with 0.6% KCl solution and fixed with acetic acid–methanol (1:3) solution. After fixation, cells were stained with Diff-Quik on a glass slide. A total of 300 cells in metaphase per group were observed, and the number of chromosomal aberrations was recorded. The chromosomal aberration rate (%) was calculated using the following formula: (number of cells with aberrations/total number of cells examined) × 100. A Student’s t-test was used for statistical analysis, and a significant increase (p < 0.05) compared to the negative control indicated a positive response.

[3] = tested on: Salmonella typhimurium TA100
[4] = Solubility in 95% ethanol; type: physicochemical; conditions: organic solvent or mixture
Experimental: Optical pure antrocin, with a purity > 95%, was provided by Professor Zhen Yang at the School of Chemical Biology and Biotechnology, Peking University. […] A 50 mg/mL ethanol solution of antrocin was prepared as a stock solution, and was diluted before testing. All of the samples were stored at 4 °C.

[5] = female rats, 7.5 mg/kg oral 28 d
[6] = female rats, 37.5 mg/kg oral 28 d
[7] = male rats, 37.5 mg/kg oral 28 d

Structure (SMILES): C=C1CC[C@H]2C(C)(C)CCC[C@@]23C(=O)OC[C@@H]13 [Antrocin, (-)-Antrocin]
- BASO [1, 5]: 0.0 ± 0.1%
- EOSIN [1, 5]: 2.1 ± 1.7%
- HCT [1, 5]: 45.0 ± 3.7%
- HGB [1, 5]: 14.7 ± 1.2 g/dL
- LYMPH [1, 5]: 86.1 ± 5.4%
- MCH [1, 5]: 19.5 ± 0.8 pg
- MCHC [1, 5]: 32.7 ± 0.3 g/dL
- MCV [1, 5]: 59.7 ± 1.7 fL
- MONO [1, 5]: 2.3 ± 1.1%
- NEUT [1, 5]: 9.6 ± 3.3%
- PLT [1, 5]: 606.0 ± 430.1 * 10^3/µL
- RBC [1, 5]: 7.5 ± 0.6 10^6/µL
- WBC [1, 5]: 8.7 ± 3.4 10^3/µL
- BASO [1, 6]: 0.2 ± 0.2%
- EOSIN [1, 6]: 1.2 ± 0.3%
- HCT [1, 6]: 48.4 ± 2.0%
- HGB [1, 6]: 15.8 ± 0.5 g/dL
- LYMPH [1, 6]: 84.5 ± 4.1%
- MCH [1, 6]: 19.8 ± 0.5 pg
- MCHC [1, 6]: 32.7 ± 0.4 g/dL
- MCV [1, 6]: 60.6 ± 1.0 fL
- MONO [1, 6]: 3.2 ± 2.0%
- NEUT [1, 6]: 10.9 ± 3.4%
- PLT [1, 6]: 1065.6 ± 199.8 10^3/µL
- RBC [1, 6]: 8.0 ± 0.4 10^6/µL
- WBC [1, 6]: 7.8 ± 4.5 10^3/µL
- BASO ([1]; male rats, 7.5 mg/kg oral 28 d): 0.0 ± 0.1%
- EOSIN ([1]; male rats, 7.5 mg/kg oral 28 d): 1.2 ± 0.3%
- HCT ([1]; male rats, 7.5 mg/kg oral 28 d): 45.8 ± 1.2%
- HGB ([1]; male rats, 7.5 mg/kg oral 28 d): 15.1 ± 0.4 g/dL
- LYMPH ([1]; male rats, 7.5 mg/kg oral 28 d): 77.2 ± 1.7 %
- MCH ([1]; male rats, 7.5 mg/kg oral 28 d): 19.7 ± 0.5 pg
- MCHC ([1]; male rats, 7.5 mg/kg oral 28 d): 32.9 ± 0.3 g/dL
- MCV ([1]; male rats, 7.5 mg/kg oral 28 d): 59.8 ± 1.5 fL
- MONO ([1]; male rats, 7.5 mg/kg oral 28 d): 2.7 ± 2.4%
- NEUT ([1]; male rats, 7.5 mg/kg oral 28 d): 18.9 ± 3.1%
- PLT ([1]; male rats, 7.5 mg/kg oral 28 d): 1235.2 ± 20.9 * 10^3/µL
- RBC ([1]; male rats, 7.5 mg/kg oral 28 d): 7.7 ± 0.1 10^6/µL
- WBC ([1]; male rats, 7.5 mg/kg oral 28 d): 5.3 ± 2.0 10^3/µL
- BASO [1, 7]: 0.1 ± 0.1%
- EOSIN [1, 7]: 0.6 ± 0.4%
- HCT [1, 7]: 48.3 ± 3.2%
- HGB [1, 7]: 15.7 ± 0.9 g/dL
- LYMPH [1, 7]: 83.9 ± 3.9 %
- MCH [1, 7]: 19.4 ± 0.6 pg
- MCHC [1, 7]: 32.4 ± 0.6 g/dL
- MCV [1, 7]: 59.8 ± 1.3 fL
- MONO [1, 7]: 1.8 ± 1.1%
- NEUT [1, 7]: 13.6 ± 3.7 %
- PLT [1, 7]: 1372.2 ± 161.8 * 10^3/µL
- RBC [1, 7]: 8.1 ± 0.6 10^6/µL
- WBC [1, 7]: 6.4 ± 1.1 10^3/µL
- chromosomal aberration frequency versus negative control ([2]; 25-100 μg/mL, short-term with S9, short-term without S9, long-term exposure): no significant differences
- Frequency of Chromosomal Aberration (%) ([2]; with S9 (3 h), 25 μg/mL): 5.3 ± 1.2%
- Total Aberrations ([2]; with S9 (3 h), 25 μg/mL): 16/300
- Frequency of Chromosomal Aberration (%) ([2]; with S9 (3 h), 50 μg/mL): 6.3 ± 2.1%
- Total Aberrations ([2]; with S9 (3 h), 50 μg/mL): 19/300
- Frequency of Chromosomal Aberration (%) ([2]; with S9 (3 h), 100 μg/mL): 6.3 ± 2.1%
- Total Aberrations ([2]; with S9 (3 h), 100 μg/mL): 19/300
- Frequency of Chromosomal Aberration (%) ([2]; without S9 (3 h), 25 μg/mL): 4.3 ± 3.8%
- Total Aberrations ([2]; without S9 (3 h), 25 μg/mL): 13/300
- Frequency of Chromosomal Aberration (%) ([2]; without S9 (3 h), 50 μg/mL): 4.3 ± 2.9%
- Total Aberrations ([2]; without S9 (3 h), 50 μg/mL): 13/300
- Frequency of Chromosomal Aberration (%) ([2]; without S9 (3 h), 100 μg/mL): 5.3 ± 2.1%
- Total Aberrations ([2]; without S9 (3 h), 100 μg/mL): 16/300
- Frequency of Chromosomal Aberration (%) ([2]; without S9 (19 h), 25 μg/mL): 9.3 ± 1.2%
- Total Aberrations ([2]; without S9 (19 h), 25 μg/mL): 28/300
- Frequency of Chromosomal Aberration (%) ([2]; without S9 (19 h), 50 μg/mL): 10.3 ± 2.5%
- Total Aberrations ([2]; without S9 (19 h), 50 μg/mL): 31/300
- Frequency of Chromosomal Aberration (%) ([2]; without S9 (19 h), 100 μg/mL): 7.3 ± 1.5%
- Total Aberrations ([2]; without S9 (19 h), 100 μg/mL): 22/300
- Number of Revertant ([3]; TA100, with S9, 0.003125 mg/plate): 194.3 ± 5.4 Colony/Plate
- Number of Revertant ([3]; TA100, with S9, 0.00625 mg/plate): 185.0 ± 6.5 Colony/Plate
- Number of Revertant ([3]; TA100, with S9, 0.025 mg/plate): 197.0 ± 8.8 Colony/Plate
- Number of Revertant ([3]; TA100, with S9, 0.05 mg/plate): 195.3 ± 2.9 Colony/Plate
- Number of Revertant ([3]; TA100, without S9, 0.003125 mg/plate): 170.7 ± 1.2 Colony/Plate
- Number of Revertant ([3]; TA100, without S9, 0.00625 mg/plate): 169.3 ± 8.2 Colony/Plate
- Number of Revertant ([3]; TA100, without S9, 0.025 mg/plate): 181.7 ± 5.7 Colony/Plate
- Number of Revertant ([3]; TA100, without S9, 0.05 mg/plate): 166.7 ± 4.5 Colony/Plate
- bacterial mutagenicity ([3]; preliminary tests, TA100, 100 μg/plate): no bacterial mutagenicity
- solubility [4]: ~133 mg/mL (≈ 568 mM)
